{"source": "patent US20210161968A1", "about": "“USE OF MICRONEEDLE PATCH TO PROMOTE HAIR GROWTH” (North Carolina State University, priority 2018, published 2021)", "test_system": "7-week-old shaved C57BL/6J mouse model", "experiment": "Hair loss therapy (hair regrowth) in shaved mouse model", "assay_type": "in vivo", "method": "Animal Studies: C57B/6J mice were used in this work and purchased from Jackson Laboratory (Bar Harbor, Me., United States of America). For in vivo therapy studies, the mice were shaved at postnatal day 50, and treated with an HMN patch loaded with exosomes and/or UK5099 at day 1 and day 5 after hair shave. The patch was pressed firmly for the first 5 seconds to penetrate through the epidermis and then pressed softly for an additional 1 minute to make the patch absorb liquid. The patch base was removed at 4 hours post-insertion into the skin. Topical administration of UK5099 (solvent formulation: ethanol/water/propylene glycol=5/3/2), and subcutaneous injection of exosomes were performed every two days, with the dosage same with that of the corresponding HMN patch. Shaved mice without any treatment were adopted as a control. The clinical agent minoxidil was used via topical administration in a concentration of 3%. The time profile of the hair phenotype transformation was obtained by real-time observation of the hair regrowth in mice. The judgement of the hair follicles in telogen, telogen-anagen transition, and anagen was performed according to a method previously described in the literature. See Oh et al., J. Investig. Dermatol. 2016, 136(1), 34-44. […]", "data": [{"smiles": "N#CC(=Cc1cn(-c2ccccc2)c2ccccc12)C(=O)O", "note": "[UK5099, 2-cyano-3-(1-phenyl-1H-indol-3-yl)-2-propenoic acid]", "values": [{"measurement": "time for HFSCs to enter into anagen (pigmentation and hair regrowth)", "setting": "delivered via HMN patch, two rounds of administration (day 1 and day 5)", "result": "about 8 days"}, {"measurement": "therapeutic effect reflected by the hair covered area", "setting": "topical administration, seven treatments, compared with HMN administration", "result": "inferior therapeutic effect"}]}]}
